According to US20120004244A1, “Bis Aromatic Compounds for Use as LTC4 Synthase Inhibitors” (BIOLIPOX AB, priority 2009, published 2012):

These molecules were tested against T1, Recombinant human LTC4 synthase (Homo sapiens, UniProt Q16873) (assay: LTC4 synthase in vitro assay (LTA4 to LTC4, HTRF detection)).
T1 construct: made in house; host or cells: Pichia pastoris ('Piccia pastoralis' [sic])
T1 sequence (Q16873 1-150): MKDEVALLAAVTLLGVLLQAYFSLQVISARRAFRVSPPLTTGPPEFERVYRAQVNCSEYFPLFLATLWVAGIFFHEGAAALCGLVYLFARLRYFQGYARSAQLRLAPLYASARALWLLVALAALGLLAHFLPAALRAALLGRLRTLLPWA
Format: biochemical
In short: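 Purified recombinant human LTC4 synthase expressed in Pichia (0.5 μg/mL total protein) was preincubated with inhibitor at 10 μM final for 10 min at room temperature in PBS pH 7.4 with 5 mM GSH. LTA4 was then added at 2.5 μM final, and after 5 min at room temperature LTC4 was detected by HTRF.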

Row | Compound | IC50 [nM]
1 | CN(c1ccc(Cl)cc1)c1ccc(C(=O)c2ccc(OCc3ccccc3)c(C(=O)O)c2)nc1 [12:7, 2-Benzyloxy-5-{5-[(4-chlorophenyl)(methyl)amino]picolinoyl}benzoic acid] | 375
2 | O=C(c1ccc(Oc2ccccc2)c(C(=O)O)c1)c1ncc(N(Cc2ccccc2)c2ccc(Cl)cc2)cn1 [10:5, 5-{5-[(Benzyl)(4-chlorophenyl)amino]pyrimidine-2-carbonyl}-2-phenoxybenzoic acid] | 119
3 | COc1cccc(CNc2ccc(C(=O)c3ccc(N(C)c4ccc(Cl)cc4)cn3)cc2C(=O)O)c1 [2:7, 5-{5-[(4-Chlorophenyl)(methyl)amino]picolinoyl}-2-(3-methoxybenzylamino)benzoic acid] | 133
4 | COc1cccc(C(=O)Nc2ccc(C(=O)c3ccc(N(C)c4ccc(Cl)cc4)cn3)cc2C(=O)O)c1 [3:10, 5-{5-[(4-Chlorophenyl)(methyl)amino]picolinoyl}-2-(3-methoxybenzamido)-benzoic acid] | 24
5 | CCc1ccc(N(C)c2ccc(C(=O)c3ccc(C(=O)c4ccccc4)c(C(=O)O)c3)nc2)cc1 [5:23] | 184
6 | COc1cccc(C(=O)Nc2ccc(C(=O)c3ccc(N(C)c4ccc(Cl)cc4)cn3)cc2C(=O)O)c1OC [3:27, 5-{5-[(4-Chlorophenyl)(methyl)amino]picolinoyl}-2-(2,3-dimethoxybenzamido)-benzoic acid] | 40
